Molecular target: T1, human NK3 receptor (Homo sapiens, UniProt P29371)
T1 construct: expressed in transfected cells; host or cells: HEK293 cells (transient expression), membranes
T1 sequence (P29371 1-465): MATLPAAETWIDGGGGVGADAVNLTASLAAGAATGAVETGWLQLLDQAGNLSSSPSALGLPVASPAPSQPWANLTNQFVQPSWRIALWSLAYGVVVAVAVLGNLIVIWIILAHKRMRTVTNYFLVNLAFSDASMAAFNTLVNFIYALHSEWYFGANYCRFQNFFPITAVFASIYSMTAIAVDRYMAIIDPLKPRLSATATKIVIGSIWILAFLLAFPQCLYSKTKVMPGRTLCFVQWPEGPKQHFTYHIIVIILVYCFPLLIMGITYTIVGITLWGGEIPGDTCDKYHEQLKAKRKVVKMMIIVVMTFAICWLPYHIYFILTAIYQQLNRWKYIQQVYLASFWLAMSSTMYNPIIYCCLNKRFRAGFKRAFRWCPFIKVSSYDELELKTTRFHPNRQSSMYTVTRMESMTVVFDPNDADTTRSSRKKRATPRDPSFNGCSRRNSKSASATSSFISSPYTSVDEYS
Assay: [3H]SR142801 competition binding assay
Settings: membrane from HEK293 cells transiently expressing recombinant human NK3 receptor; radioligand [3H]SR142801; Ki from IC50 by Cheng-Prussoff equation
Experimental: [^3H]SR142801 Competition Binding Assay
hNK3 receptor binding experiment were performed using [^3H]SR142801 (Catalog No. TRK1035, specific activity: 74.0 Ci/mmol, Amersham, GE Healthcare UK limited, Buckinghamshire, UK) and membrane isolated from HEK293 cells transiently expressing recombinant human NK3 receptor. After thawing, the membrane homogenates were centrifuged at 48,000×g for 10 min at 4° C., the pellets were resuspended in the 50 mM Tris-HCl, 4 mM MnCl2, 1 μM phosphoramidon, 0.1% BSA binding buffer at pH 7.4 to a final assay concentration of 5 μg protein/well. […] At the end of the incubation, membranes were filtered onto unitfilter (96-well white microplate with bonded GF/C filter preincubated 1 h in 0.3% PEI+0.3% BSA, Packard BioScience, Meriden, Conn.) with a Filtermate 196 harvester (Packard BioScience) and washed 4 times with ice-cold 50 mM Tris-HCl, pH 7.4 buffer. Nonspecific binding was measured in the presence of 10 μM SB222200 for both radioligands. The radioactivity on the filter was counted (5 min) on a Packard Top-count microplate scintillation counter with quenching correction after addition of 45 μl of microscint 40 (Canberra Packard S. A., Zürich, Switzerland) and shaking for 1 h. Inhibition curves were fitted according to the Hill equation: y=100/(1+(x/IC50)^nH), where nH=slope factor using Excel-fit 4 software (Microsoft). IC50 values were derived from the inhibition curve and the affinity constant (Ki) values were calculated using the Cheng-Prussoff equation Ki=IC50/(1+[L]/KD) where [L] is the concentration of radioligand and KD is its dissociation constant at the receptor, derived from the saturation isotherm. All experiments were performed in duplicate and the mean±standard error (SEM) of the individual Ki values was calculated.

| Ki [nM] | Structure (SMILES) |
| --- | --- |
| 49.6 | CS(=O)(=O)N1CCN(C(=O)N2C[C@H](CSc3ccc(C(F)(F)F)cc3)[C@@H](c3ccc(Cl)c(Cl)c3)C2)CC1 (racemic) [Example 1, (3SR,4RS)-[3-(3,4-Dichloro-phenyl)-4-(4-trifluoromethyl-phenylsulfanylmethyl)-pyrrolidin-1-yl]-(4-methanesulfonyl-piperazin-1-yl)-methanone] |
| 45.9 | CS(=O)(=O)N1CCN(C(=O)N2C[C@H](CSc3ccc(Cl)cc3)[C@@H](c3ccc(Cl)c(Cl)c3)C2)CC1 (racemic) [Example 2] |
| 61.7 | CS(=O)(=O)N1CCN(C(=O)N2C[C@H](CSc3ccc(C#N)cc3)[C@@H](c3ccc(Cl)c(Cl)c3)C2)CC1 (racemic) [Example 4, (3SR,4RS)-4-[4-(3,4-Dichloro-phenyl)-1-(4-methanesulfonyl-piperazine-1-carbonyl)-pyrrolidin-3-ylmethylsulfanyl]-benzonitrile] |
| 2.4 | CS(=O)(=O)N1CCN(C(=O)N2C[C@H](CSc3ccc(C(F)(F)F)cn3)[C@@H](c3ccc(Cl)c(Cl)c3)C2)CC1 (racemic) [Example 5, (3SR,4RS)-[3-(3,4-Dichloro-phenyl)-4-(5-trifluoromethyl-pyridin-2-ylsulfanylmethyl)-pyrrolidin-1-yl]-(4-methanesulfonyl-piperazin-1-yl)-methanone] |
| 2.2 | CS(=O)(=O)N1CCN(C(=O)N2C[C@H](CSc3ccc(Cl)cn3)[C@@H](c3ccc(Cl)c(Cl)c3)C2)CC1 (racemic) [Example 6, (3SR,4RS)-[3-(5-Chloro-pyridin-2-ylsulfanylmethyl)-4-(3,4-dichloro-phenyl)-pyrrolidin-1-yl]-(4-methanesulfonyl-piperazin-1-yl)-methanone] |
| 20 | CS(=O)(=O)N1CCN(C(=O)N2CC(CNc3ccc(C(F)(F)F)cn3)C(c3ccc(Cl)c(Cl)c3)C2)CC1 (racemic) [Example 12, (3SR,4RS)-{3-(3,4-Dichloro-phenyl)-4-[(5-trifluoromethyl-pyridin-2-ylamino)-methyl]-pyrrolidin-1-yl}-(4-methanesulfonyl-piperazin-1-yl)-methanone] |
| 78.8 | CN(C[C@H]1CN(C(=O)N2CCN(S(C)(=O)=O)CC2)C[C@@H]1c1ccc(Cl)c(Cl)c1)c1ccc(C(F)(F)F)cn1 (racemic) [Example 15] |
| 9.6 | N#Cc1ccc(C(=O)N2CC(CNc3ccc(C(F)(F)F)cn3)C(c3ccc(Cl)c(Cl)c3)C2)cn1 (racemic) [Example 17, (3SR,4RS)-5-{3-(3,4-Dichloro-phenyl)-4-[(5-trifluoromethyl-pyridin-2-ylamino)-methyl]-pyrrolidine-1-carbonyl}-pyridine-2-carbonitrile] |
| 10.3 | CC(=O)N1CCC(C(=O)N2C[C@H](CNc3ccc(C(F)(F)F)cn3)[C@@H](c3ccc(Cl)c(Cl)c3)C2)CC1 (racemic) [Example 19] |
| 11 | Cc1cc(C(=O)N2C[C@H](CNc3ccc(C(F)(F)F)cn3)[C@@H](c3ccc(Cl)c(Cl)c3)C2)cnn1 (racemic) [Example 20] |
| 8.9 | CC1(C(=O)N2CCC(C(=O)N3C[C@H](CNc4ccc(C(F)(F)F)cn4)[C@@H](c4ccc(Cl)c(Cl)c4)C3)CC2)CC1 (racemic) [Example 21] |
| 98.6 | O=C(c1ccnnc1)N1C[C@H](CNc2ccc(C(F)(F)F)cn2)[C@@H](c2ccc(Cl)c(Cl)c2)C1 (racemic) [Example 22] |
| 10.9 | Cc1cc(C(=O)N2C[C@H](CNc3ccc(C(F)(F)F)cn3)[C@@H](c3ccc(Cl)c(Cl)c3)C2)c(C)nn1 (racemic) [Example 23] |
| 16.5 | CC1(C(=O)N2CCC(C(=O)N3C[C@H](CNc4ncc(Cl)cn4)[C@@H](c4ccc(Cl)c(Cl)c4)C3)CC2)CC1 (racemic) [Example 24] |
| 19.5 | CC(=O)N1CCC(C(=O)N2C[C@H](CNc3ncc(Cl)cn3)[C@@H](c3ccc(Cl)c(Cl)c3)C2)CC1 (racemic) [Example 25] |
| 46.3 | N#Cc1ccc(C(=O)N2C[C@H](CNc3ncc(Cl)cn3)[C@@H](c3ccc(Cl)c(Cl)c3)C2)cn1 (racemic) [Example 26] |
| 24.7 | Cc1cc(C(=O)N2C[C@H](CNc3ncc(Cl)cn3)[C@@H](c3ccc(Cl)c(Cl)c3)C2)cnn1 (racemic) [Example 27] |
| 58.5 | CS(=O)(=O)N1CCN(C(=O)N2C[C@H](CNc3ccc(C(F)(F)F)cc3)[C@@H](c3ccc(Cl)c(Cl)c3)C2)CC1 (racemic) [Example 28] |
| 36.1 | CS(=O)(=O)N1CCN(C(=O)N2C[C@H](CNc3ccc(Cl)cn3)[C@@H](c3ccc(Cl)c(Cl)c3)C2)CC1 (racemic) [Example 30] |
| 80 | CS(=O)(=O)N1CCN(C(=O)N2CC(CNc3ncc(C#N)cn3)C(c3ccc(Cl)c(Cl)c3)C2)CC1 (racemic) [Example 31, (3SR,4RS)-2-{[4-(3,4-Dichloro-phenyl)-1-(4-methanesulfonyl-piperazine-1-carbonyl)-pyrrolidin-3-ylmethyl]-amino}-pyrimidine-5-carbonitrile] |
| 7.5 | CC(=O)N1CCC(C(=O)N2C[C@H](CNc3ncc(C(F)(F)F)cn3)[C@@H](c3ccc(Cl)c(Cl)c3)C2)CC1 (racemic) [Example 33] |
| 6.2 | CC1(C(=O)N2CCC(C(=O)N3C[C@H](CNc4ncc(C(F)(F)F)cn4)[C@@H](c4ccc(Cl)c(Cl)c4)C3)CC2)CC1 (racemic) [Example 34] |
| 9 | Cc1cc(C(=O)N2C[C@H](CNc3ncc(C(F)(F)F)cn3)[C@@H](c3ccc(Cl)c(Cl)c3)C2)cnn1 (racemic) [Example 35] |
| 68.2 | CC(Nc1ccc(C#N)cn1)[C@H]1CN(C(=O)N2CCN(S(C)(=O)=O)CC2)C[C@@H]1c1ccc(Cl)c(Cl)c1 (mixture of isomers) [Example 36, (3SR,4RS) 6-{1-(RS)-[4-(3,4-Dichloro-phenyl)-1-(4-methanesulfonyl-piperazine-1-carbonyl)-pyrrolidin-3-yl]-ethylamino}-nicotinonitrile and (3SR,4RS) 6-{1-(SR)-[4-(3,4-Dichloro-phenyl)-1-(4-methanesulfonyl-piperazine-1-carbonyl)-pyrrolidin-3-yl]-ethylamino}-nicotinonitrile] |
| 54.9 | CC(Nc1ccc(C(F)(F)F)cn1)[C@H]1CN(C(=O)N2CCN(S(C)(=O)=O)CC2)C[C@@H]1c1ccc(Cl)c(Cl)c1 (mixture of isomers) [Example 37, (3SR,4RS) {3-(3,4-Dichloro-phenyl)-4-[1-(RS)-(5-trifluoromethyl-pyridin-2-ylamino)-ethyl]-pyrrolidin-1-yl}-(4-methanesulfonyl-piperazin-1-yl)-methanone and (3SR,4RS) {3-(3,4-Dichloro-phenyl)-4-[1-(SR)-(5-trifluoromethyl-pyridin-2-ylamino)-ethyl]-pyrrolidin-1-yl}-(4-methanesulfonyl-piperazin-1-yl)-methanone] |
| 22.3 | C[C@@H](Nc1ccc(C(F)(F)F)cn1)[C@H]1CN(C(=O)N2CCN(S(C)(=O)=O)CC2)C[C@@H]1c1ccc(Cl)c(Cl)c1 (racemic) [Example 38, (3SR,4RS) {3-(3,4-Dichloro-phenyl)-4-[1-(RS)-(5-trifluoromethyl-pyridin-2-ylamino)-ethyl]-pyrrolidin-1-yl}-(4-methanesulfonyl-piperazin-1-yl)-methanone] |
| 86.3 | CC1(C(=O)N2CCC(C(=O)N3CC(CNc4ccc(Cl)cn4)C(c4ccc(Cl)cc4)C3)CC2)CC1 (racemic) [Example 41, (3SR,4RS) {3-(4-Chloro-phenyl)-4-[(5-chloro-pyridin-2-ylamino)-methyl]-pyrrolidin-1-yl}-[1-(1-methyl-cyclopropanecarbonyl)-piperidin-4-yl]-methanone] |
| 22.8 | CC1(C(=O)N2CCC(C(=O)N3C[C@H](CNc4ncc(C(F)(F)F)cn4)[C@@H](c4ccc(F)cc4)C3)CC2)CC1 (racemic) [Example 46] |
| 71.6 | CN(C[C@H]1CN(C(=O)C2CCN(C(=O)C3(C)CC3)CC2)C[C@@H]1c1ccc(F)cc1)c1ncc(C(F)(F)F)cn1 (racemic) [Example 47] |
| 71.1 | CS(=O)(=O)N1CCN(C(=O)N2C[C@H](CNc3ccc(C#N)cn3)[C@@H](c3ccc(Cl)c(Cl)c3)C2)CC1 [Example 8] |

From patent US8318759B2, “Pyrrolidine derivatives as NK3 receptor antagonists” (Hoffmann-La Roche Inc., priority 2009, dated 2012)
